Data on 3 substances can be found in patent US6998259B1, “Enzymatic treatment of whey proteins for the production of antihypertensive peptides and the resulting products” (Davisco Foods International, priority 1999, dated 2006).

Like-named read-outs stand apart in the source and are kept apart here. No end group written: not given here.

The target of assay [1] is T1, Angiotensin Converting Enzyme (from rabbit lung) (Oryctolagus cuniculus, UniProt P12822).
T1 construct: Angiotensin Converting Enzyme (from rabbit lung); purchased Sigma Chemical Co. (St. Louis, USA); host or cells: rabbit lung tissue
T1 sequence (P12822 34-1310): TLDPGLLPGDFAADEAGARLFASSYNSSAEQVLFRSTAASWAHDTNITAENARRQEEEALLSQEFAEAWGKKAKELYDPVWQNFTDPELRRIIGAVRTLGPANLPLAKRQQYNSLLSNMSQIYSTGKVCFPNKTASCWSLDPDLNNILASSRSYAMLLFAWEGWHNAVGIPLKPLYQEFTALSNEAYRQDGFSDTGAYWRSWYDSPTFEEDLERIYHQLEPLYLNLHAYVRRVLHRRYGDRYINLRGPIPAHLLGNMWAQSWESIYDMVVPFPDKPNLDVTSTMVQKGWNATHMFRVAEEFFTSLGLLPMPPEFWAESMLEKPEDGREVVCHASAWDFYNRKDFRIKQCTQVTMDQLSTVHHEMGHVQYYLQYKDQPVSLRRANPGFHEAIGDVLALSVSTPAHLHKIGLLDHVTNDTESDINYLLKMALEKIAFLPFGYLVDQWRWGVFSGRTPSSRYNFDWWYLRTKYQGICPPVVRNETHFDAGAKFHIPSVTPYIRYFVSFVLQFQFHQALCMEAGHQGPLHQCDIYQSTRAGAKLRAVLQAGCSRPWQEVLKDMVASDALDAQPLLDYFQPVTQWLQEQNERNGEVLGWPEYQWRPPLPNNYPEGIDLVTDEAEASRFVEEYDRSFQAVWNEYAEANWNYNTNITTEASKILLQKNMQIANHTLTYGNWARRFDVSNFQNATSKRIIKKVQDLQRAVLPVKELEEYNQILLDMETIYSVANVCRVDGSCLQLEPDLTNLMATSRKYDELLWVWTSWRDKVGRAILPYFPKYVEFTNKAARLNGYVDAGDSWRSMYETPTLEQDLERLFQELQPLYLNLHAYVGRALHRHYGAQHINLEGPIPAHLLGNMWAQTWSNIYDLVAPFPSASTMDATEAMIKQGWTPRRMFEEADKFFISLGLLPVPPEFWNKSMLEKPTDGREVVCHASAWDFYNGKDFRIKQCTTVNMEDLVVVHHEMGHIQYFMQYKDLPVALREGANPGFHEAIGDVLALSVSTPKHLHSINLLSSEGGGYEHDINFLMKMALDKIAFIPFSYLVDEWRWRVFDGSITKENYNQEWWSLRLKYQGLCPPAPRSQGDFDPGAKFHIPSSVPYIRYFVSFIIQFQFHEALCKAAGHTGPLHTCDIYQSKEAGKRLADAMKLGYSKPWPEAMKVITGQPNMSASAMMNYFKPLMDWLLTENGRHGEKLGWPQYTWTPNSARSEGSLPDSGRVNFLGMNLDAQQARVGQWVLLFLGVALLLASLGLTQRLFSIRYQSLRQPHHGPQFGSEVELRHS
The assay can be described thus: ACE-inhibitory activity, in vitro spectrophotometric assay (Cushman and Cheung, HHL substrate). The format is biochemical. The text has this:
Whey protein hydrolysate WPH 917 (84.5% protein w/w) was obtained from New Zealand Milk Product Inc. (Santa Rosa, USA). Whey protein hydrolysate LE80GF (80.0% w/w) was obtained from DMV International (New-York, USA). Whey protein isolate (BiPRO™) and β-lactoglobulin-rich product were obtained from Davisco Foods International (Le Sueur, Minn., USA). Purified peptidic sequence Ala-Leu-Pro-Met-His-Ile-Arg modelling the peptide f-142–148 from β-1g was chemically-synthetized by the Service de séquence de peptides de l'Est du Québec (Ste-Foy, Qc, Canada). HEPES Sodium salt, Hippuryl-L-Histidyl-L-Leucine, and Angiotensin Converting Enzyme (from rabbit lung) were purchased from Sigma Chemical Co. (St. Louis, USA). All other products used were analytical grade.
The ACE-inhibitory activity was measured in vitro by a spectrophotometric assay according to the method of Cushman and Cheung. (Cushman, D. N., Cheung, H. S. 1971 Spectrophotometric assay and properties of the angiotensin converting enzyme of rabbit lung. Biochemical Pharmacology, 20: 1637–1648.) According to this method, hippuric acid is liberated from hippuryl-L-histidyl-L-leucine (HHL) by the enzymatic reaction of ACE. After extraction by ethyl acetate and removal of ethyl acetate by heat evaporation, hippuric acid is dissolved in deionized water.
Inhibitory activity was calculated according to the following equation: Inhibitory activity (%)=[(Acontrol−Asample)/(Acontrol−Ablank)]×[…] 1 where A represents absorbance. A plot of the inhibitory activity (%) versus log10 of sample concentration (mg powder ml^−1) was generated using 6 different concentrations of samples for BIPRO™, AS-601 (BiPRO™β-1g), commercial hydrolysates (WPH 917, LE80GF) and of synthetic peptide (f142–148) from β-1g. Each concentration was tested in triplicate and the mean value was plotted in the curves. The IC50 value (expressed in terms of mg powder ml^−1, defined as the concentration of inhibitor which gives 50% inhibition of ACE activity, was calculated using the linear regression equations of the curves.

The next assay addresses ACE (Homo sapiens, UniProt P12821). The following applies: cited from earlier work.
Assay [2] relates to spontaneously hypertensive rats. Conditions: among nine identified peptide sequences; cited from earlier work.
The mark [3] stands for this setting: inhibitory activity (%) versus sample concentration (mg powder ml^−1).

Chain of ACE (P12821 30-1306, species assumed): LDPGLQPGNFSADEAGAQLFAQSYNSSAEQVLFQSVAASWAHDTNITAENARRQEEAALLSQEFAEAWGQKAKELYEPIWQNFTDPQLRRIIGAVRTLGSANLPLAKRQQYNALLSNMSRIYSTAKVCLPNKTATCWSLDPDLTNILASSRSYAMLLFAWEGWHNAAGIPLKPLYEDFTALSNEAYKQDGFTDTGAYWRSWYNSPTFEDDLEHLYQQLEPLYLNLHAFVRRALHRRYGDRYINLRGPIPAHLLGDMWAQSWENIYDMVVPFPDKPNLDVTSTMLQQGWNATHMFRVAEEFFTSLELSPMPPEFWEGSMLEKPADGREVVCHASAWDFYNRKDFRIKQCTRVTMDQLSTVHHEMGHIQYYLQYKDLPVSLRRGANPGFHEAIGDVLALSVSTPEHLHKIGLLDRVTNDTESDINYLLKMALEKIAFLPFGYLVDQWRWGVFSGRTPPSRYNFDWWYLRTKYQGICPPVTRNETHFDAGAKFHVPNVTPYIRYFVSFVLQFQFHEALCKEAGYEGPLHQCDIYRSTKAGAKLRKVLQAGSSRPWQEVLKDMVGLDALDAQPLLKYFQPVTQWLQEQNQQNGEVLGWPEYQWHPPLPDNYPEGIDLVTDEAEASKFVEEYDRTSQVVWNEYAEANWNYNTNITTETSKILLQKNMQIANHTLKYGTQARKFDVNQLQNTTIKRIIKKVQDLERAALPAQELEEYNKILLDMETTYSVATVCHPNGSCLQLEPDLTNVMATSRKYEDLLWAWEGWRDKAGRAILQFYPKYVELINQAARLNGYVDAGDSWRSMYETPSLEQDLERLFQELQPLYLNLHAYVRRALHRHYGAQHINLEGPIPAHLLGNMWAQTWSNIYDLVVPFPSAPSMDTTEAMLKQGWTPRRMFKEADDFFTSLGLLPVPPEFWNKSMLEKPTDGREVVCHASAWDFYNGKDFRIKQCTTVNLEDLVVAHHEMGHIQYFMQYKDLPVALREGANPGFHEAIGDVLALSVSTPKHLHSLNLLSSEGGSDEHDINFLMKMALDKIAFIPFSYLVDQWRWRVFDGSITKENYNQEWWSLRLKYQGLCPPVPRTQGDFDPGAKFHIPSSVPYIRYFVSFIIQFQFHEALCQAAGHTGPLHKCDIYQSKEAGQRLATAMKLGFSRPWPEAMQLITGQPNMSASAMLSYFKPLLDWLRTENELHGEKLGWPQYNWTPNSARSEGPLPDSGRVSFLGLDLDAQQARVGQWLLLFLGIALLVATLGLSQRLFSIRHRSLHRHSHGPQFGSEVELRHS

“ALPMHIR [β-1 g f142–148, Ala-Leu-Pro-Met-His-Ile-Arg]”: the “Slope m of linear regression (y=m lnX+b) of the ACE-inhibitory activity curve” value in assay [1] (setting [3]) worked out at 10.35. For the same substance, the “Y-intercept b of linear regression (y=m lnX+b) of the ACE-inhibitory activity curve” value in assay [1] (setting [3]) is reported as 84.4. The IC50 in assay [1] (rabbit lung ACE, HHL substrate, 37° C. for 20 min, 6 concentrations in triplicate, calculated from linear regression, read-out: IC50 (concentration of inhibitor which gives 50% inhibition of ACE activity) (converted)) is 47.8 µM; at ACE (Mullally et al. 1997, read-out: IC50 (ACE inhibition)), 42.6 µM.

As to “peptide f23–34 from xsl casein: peptide f23–34 from casein (bovine, variant B), from tryptic casein hydrolysate (FFVAPFPEVFGK; Alpha-S1-casein; UniProt P02662 38-49, looked up, fragment)”, the IC50 in the assay with ACE (Maruyama and Suzuki, tryptic casein hydrolysate peptide, read-out: IC50 (concentration needed to inhibit 50% ACE activity)) is 77 µM.

In the case of “β-lactoglobulin (f78–80): peptide fragment 78–80 of β-lactoglobulin from proteinase K digestion of cheese whey protein (Abubakar et al.) (IPA; UniProt P02754 94-96, looked up, fragment)”, the antihypertensive activity result in assay [2] is “strongest antihypertensive activity”.
